Experimental data from patent publication US20220168307A1, “TREATMENT OF SMA” (Hoffmann-La Roche Inc., priority 2019, published 2022).
Values joined by “and” are separate entries in the source; they are usually repeats but may differ in a detail not shown here. Identical values can stand only once. “Also recorded” adds a separate entry of the source. Like-named read-outs stand apart in the source and are kept apart here.

Tests used:
CYP2C8 = molecular target: T1, CYP2C8 (Homo sapiens, UniProt P10632); assay: biochemical
T1 sequence (P10632 1-490): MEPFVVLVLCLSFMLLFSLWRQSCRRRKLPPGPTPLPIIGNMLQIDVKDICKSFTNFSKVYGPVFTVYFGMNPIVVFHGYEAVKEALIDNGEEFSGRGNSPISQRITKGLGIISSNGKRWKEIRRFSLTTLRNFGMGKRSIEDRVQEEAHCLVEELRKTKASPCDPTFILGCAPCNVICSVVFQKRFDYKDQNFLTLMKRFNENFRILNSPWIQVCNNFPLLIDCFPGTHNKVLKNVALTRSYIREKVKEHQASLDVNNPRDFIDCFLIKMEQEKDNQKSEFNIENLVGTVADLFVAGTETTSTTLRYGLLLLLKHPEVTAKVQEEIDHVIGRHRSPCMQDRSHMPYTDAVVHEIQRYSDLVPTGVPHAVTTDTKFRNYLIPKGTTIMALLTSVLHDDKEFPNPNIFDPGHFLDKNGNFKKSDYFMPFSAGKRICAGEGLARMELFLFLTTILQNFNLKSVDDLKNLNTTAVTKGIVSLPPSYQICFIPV

CYP3A4 [1] = settings: human, pH 7.4
Procedure: (§1) Donors CMV negative for serology are unm
(§2) All incubations were conducted in duplicate.
The first order rate constant for inactivation (λ or kabs) was estimated from slopes of the linear portion of the curves.

[2] = Risdiplam treatment of patients with SMA: safety and exposure; assay type: in vivo, human
CYP2D6 = CYP2D6 (Homo sapiens, UniProt P10635); assay: Time-dependent inhibition (IC50 shift) of CYP2D6 in human liver microsomes; assay type: in vitro ADME; settings: risdiplam up to 12.5 μM
Procedure: as §1, §2
(§3) % remaining=(C+I/C^−I)*100

CYP2C9 = CYP2C9 (Homo sapiens, UniProt P11712); assay: Time-dependent inhibition (IC50 shift) of CYP2C9 in human liver microsomes; assay type: in vitro ADME; settings: risdiplam up to 12.5 μM
Procedure: as §1, §2, §3

CYP2C19 [3] = molecular target: T2, CYP2C19 (Homo sapiens, UniProt P33261); assay: Direct inhibition of CYP2C19 ((S)-mephenytoin) in human liver microsomes
CYP1A2 = molecular target: T3, CYP1A2 (Homo sapiens, UniProt P05177); assay: in vitro; settings: pooled human liver microsomes, pH 7.4, probe phenacetin
T3 sequence (P05177 1-516): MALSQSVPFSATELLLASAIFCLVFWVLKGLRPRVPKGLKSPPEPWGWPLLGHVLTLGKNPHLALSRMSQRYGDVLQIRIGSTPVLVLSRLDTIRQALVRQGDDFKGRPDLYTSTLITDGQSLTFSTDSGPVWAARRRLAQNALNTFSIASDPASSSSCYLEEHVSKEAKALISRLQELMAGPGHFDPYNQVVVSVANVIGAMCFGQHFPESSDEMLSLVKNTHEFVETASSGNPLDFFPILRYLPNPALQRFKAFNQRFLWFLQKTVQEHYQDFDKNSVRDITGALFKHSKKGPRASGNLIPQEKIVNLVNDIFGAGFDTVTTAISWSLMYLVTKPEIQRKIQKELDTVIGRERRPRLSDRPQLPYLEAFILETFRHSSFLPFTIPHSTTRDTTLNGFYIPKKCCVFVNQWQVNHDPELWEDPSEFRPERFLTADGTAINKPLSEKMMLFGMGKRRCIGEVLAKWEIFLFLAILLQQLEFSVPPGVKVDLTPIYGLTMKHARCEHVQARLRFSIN

CYP3A4 [4] = molecular target: CYP3A4 (Homo sapiens, UniProt P08684); assay: Direct inhibition of CYP3A4 (midazolam and testosterone) in human liver microsomes; assay type: in vitro ADME; set-up: rows headed: % Control activity at; substrate Midazolam; concentration not given; duplicates; % Control activity at; substrate Testosterone; % Remaining; other: direct; CYP3A4-Midazolam Activity; risdiplam 0.20 μM; risdiplam 0.10 μM; dupl; settings: for % Remaining / maximal inhibition: direct; for maximal inhibition: risdiplam tested up to 12.5 μM; for activity: pH 7.4, direct inhibition, read-out: % Control activity at
CYP2C19 [5] = molecular target: T2, CYP2C19; assay: in vitro; settings: pooled human liver microsomes, pH 7.4, probe (S)-mephenytoin

T2 sequence (P33261 whole entry): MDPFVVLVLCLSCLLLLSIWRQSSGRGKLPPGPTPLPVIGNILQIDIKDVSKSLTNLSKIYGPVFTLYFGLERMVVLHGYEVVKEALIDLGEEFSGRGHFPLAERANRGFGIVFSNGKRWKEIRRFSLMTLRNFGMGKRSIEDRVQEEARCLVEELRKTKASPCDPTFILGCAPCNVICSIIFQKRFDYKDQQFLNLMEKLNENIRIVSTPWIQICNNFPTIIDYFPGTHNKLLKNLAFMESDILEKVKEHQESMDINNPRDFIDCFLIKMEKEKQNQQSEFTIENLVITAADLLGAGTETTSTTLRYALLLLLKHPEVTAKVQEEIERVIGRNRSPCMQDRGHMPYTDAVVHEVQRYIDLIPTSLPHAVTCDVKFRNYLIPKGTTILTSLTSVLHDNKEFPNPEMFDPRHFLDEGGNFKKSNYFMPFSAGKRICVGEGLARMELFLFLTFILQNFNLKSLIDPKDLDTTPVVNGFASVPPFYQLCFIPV
Sequence of CYP2C9 (P11712 whole entry): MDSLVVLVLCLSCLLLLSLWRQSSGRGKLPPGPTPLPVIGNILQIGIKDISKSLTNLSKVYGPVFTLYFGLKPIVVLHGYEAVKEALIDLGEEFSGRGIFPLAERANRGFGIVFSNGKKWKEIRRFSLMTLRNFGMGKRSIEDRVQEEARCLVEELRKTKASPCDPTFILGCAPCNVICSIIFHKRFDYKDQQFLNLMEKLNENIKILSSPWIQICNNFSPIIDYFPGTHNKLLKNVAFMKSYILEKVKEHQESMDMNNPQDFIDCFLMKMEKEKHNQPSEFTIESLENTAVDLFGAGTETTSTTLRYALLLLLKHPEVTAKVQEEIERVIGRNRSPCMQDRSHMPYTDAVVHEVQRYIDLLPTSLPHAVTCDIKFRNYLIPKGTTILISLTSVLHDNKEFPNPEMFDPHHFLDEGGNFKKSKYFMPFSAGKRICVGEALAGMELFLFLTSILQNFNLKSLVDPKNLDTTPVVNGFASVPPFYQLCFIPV
Sequence of CYP3A4 (Homo sapiens, UniProt P08684) (P08684 2-503): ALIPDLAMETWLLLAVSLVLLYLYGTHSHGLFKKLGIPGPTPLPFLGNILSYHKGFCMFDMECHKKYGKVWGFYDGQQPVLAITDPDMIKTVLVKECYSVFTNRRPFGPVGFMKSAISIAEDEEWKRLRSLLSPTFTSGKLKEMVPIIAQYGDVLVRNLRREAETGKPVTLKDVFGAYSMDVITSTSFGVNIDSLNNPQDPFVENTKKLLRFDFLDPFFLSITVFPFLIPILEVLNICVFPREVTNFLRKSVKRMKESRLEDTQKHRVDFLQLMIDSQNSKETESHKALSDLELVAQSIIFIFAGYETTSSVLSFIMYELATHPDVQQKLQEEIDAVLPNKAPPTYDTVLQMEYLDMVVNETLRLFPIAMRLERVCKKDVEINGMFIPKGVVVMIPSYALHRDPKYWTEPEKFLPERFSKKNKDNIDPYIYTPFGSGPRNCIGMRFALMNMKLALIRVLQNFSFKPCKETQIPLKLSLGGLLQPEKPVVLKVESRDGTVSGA
Sequence of CYP2D6 (P10635 whole entry): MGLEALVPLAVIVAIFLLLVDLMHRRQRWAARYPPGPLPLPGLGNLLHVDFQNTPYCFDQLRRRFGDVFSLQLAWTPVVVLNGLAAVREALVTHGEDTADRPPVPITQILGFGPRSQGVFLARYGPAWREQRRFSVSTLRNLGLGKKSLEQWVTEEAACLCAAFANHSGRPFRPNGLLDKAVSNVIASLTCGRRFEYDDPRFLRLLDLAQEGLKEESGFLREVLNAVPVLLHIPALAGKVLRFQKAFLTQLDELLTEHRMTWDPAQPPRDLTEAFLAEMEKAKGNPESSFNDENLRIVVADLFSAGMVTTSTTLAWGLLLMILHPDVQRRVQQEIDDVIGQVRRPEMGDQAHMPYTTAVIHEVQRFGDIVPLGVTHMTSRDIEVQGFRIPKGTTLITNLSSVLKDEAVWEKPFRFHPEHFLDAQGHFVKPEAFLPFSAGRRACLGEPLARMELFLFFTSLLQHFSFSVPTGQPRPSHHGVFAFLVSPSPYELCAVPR

## Cc1cn2nc(-c3cc(=O)n4cc(N5CCNC6(CC6)C5)ccc4n3)cc(C)c2n1 [risdiplam, 7-(4,7-diazaspiro[2.5]octan-7-yl)-2-(2,8-dimethylimidazo[1,2-b]pyridazin-6-yl)pyrido[1,2-a]pyrimidin-4-one]
CYP2C8
  IC50: > 12.5 µM
CYP3A4 [1]
  KI: 13 µM
[2]; 5 mg risdiplam, more than 1 year of treatment, patients with SMA
  safety and tolerability (in words): safe and well tolerated
[2]; human, in vivo, SMA patients, steady state, read-out: mean AUCtau at steady state (therapeutic exposure observed in SMA patients)
  AUC: 2000 ng·h/mL
CYP2D6
  time-dependent inhibition (in words): did not show any significant reversible or time-dependent inhibition; also recorded: No significant reversible or time-dependent inhibition; also recorded: No significant time-dependent inhibition; also recorded: low potential to cause direct or time-dependent inhibition
CYP2C9
  time-dependent inhibition (in words): did not show any significant reversible or time-dependent inhibition; also recorded: No significant reversible or time-dependent inhibition; also recorded: No significant time-dependent inhibition; also recorded: low potential to cause direct or time-dependent inhibition
CYP2C19 [3]; direct inhibition, substrate (S)-Mephenytoin, concentration not given, duplicates
  % Control activity at: 97%
CYP2C19 [3]; risdiplam up to 12.5 μM
  reversible (direct) inhibition (in words): did not show any significant reversible or time-dependent inhibition; also recorded: No significant reversible or time-dependent inhibition; also recorded: No significant reversible inhibition; also recorded: low potential to cause direct or time-dependent inhibition
CYP1A2
  activity: 94%
CYP3A4 [4]; direct inhibition, substrate Testosterone, concentration not given, duplicates
  % Control activity at: 46%
CYP3A4 [4]; CYP3A4-Midazolam Activity, risdiplam 0.10 μM, duplicates
  % Remaining: 100% and 96%
CYP3A4 [4]; CYP3A4-Midazolam Activity, risdiplam 0.20 μM, duplicates
  % Remaining: 99% and 102%
CYP3A4 [4]; CYP3A4-Midazolam Activity, risdiplam 0.50 μM, duplicates
  % Remaining: 101% and 100%
CYP3A4 [4]; CYP3A4-Midazolam Activity, risdiplam 1.3 μM, duplicates
  % Remaining: 108% and 91%
CYP3A4 [4]; CYP3A4-Midazolam Activity, risdiplam 3.2 μM, duplicates
  % Remaining: 94% and 97%
CYP3A4 [4]; CYP3A4-Midazolam Activity, risdiplam 8.0 μM, duplicates
  % Remaining: 84% and 83%
CYP3A4 [4]; CYP3A4-Midazolam Activity, risdiplam 12.5 μM, duplicates
  % Remaining: 72%
CYP3A4 [4]; CYP3A4-Testosterone Activity, risdiplam 0.10 μM, duplicates
  % Remaining: 98%
CYP3A4 [4]; CYP3A4-Testosterone Activity, risdiplam 0.20 μM, duplicates
  % Remaining: 98% and 96%
CYP3A4 [4]; CYP3A4-Testosterone Activity, risdiplam 0.50 μM, duplicates
  % Remaining: 96% and 95%
CYP3A4 [4]; CYP3A4-Testosterone Activity, risdiplam 1.3 μM, duplicates
  % Remaining: 93% and 92%
CYP3A4 [4]; CYP3A4-Testosterone Activity, risdiplam 3.2 μM, duplicates
  % Remaining: 78% and 79%
CYP3A4 [4]; CYP3A4-Testosterone Activity, risdiplam 8.0 μM, duplicates
  % Remaining: 58%
CYP3A4 [4]; CYP3A4-Testosterone Activity, risdiplam 12.5 μM, duplicates
  % Remaining: 44% and 46%
CYP3A4 [4]; midazolam as substrate
  maximal inhibition: 28%
CYP3A4 [4]; testosterone as substrate
  maximal inhibition: 55%
CYP3A4 [4]; human, microsomes, pH 7.4, IC50, direct, CYP3A4-Testosterone Activity (6β-hydroxylation), testosterone 50 μM
  IC50: 11 µM
CYP3A4 [4]; human, microsomes, substrate Midazolam, concentration not given, duplicates
  activity: 72%
CYP3A4 [4]; human, microsomes, substrate Testosterone, concentration not given, duplicates
  activity: 44%
CYP3A4 [4]; midazolam 1′-hydroxylase and testosterone 6β-hydroxylase, up to 12.5 μM
  direct inhibition of CYP3A4/5 (in words): low potential to cause direct inhibition; also recorded: some inhibition
CYP2C19 [5]
  activity: 102%
